Results published in patent US7709490B2, “4,5-diphenyl-pyrimidinyl substituted carboxylic acids, method for the production and use thereof as medicaments” (Sanofi-Aventis, priority 2006, dated 2010).

Target: T1, GPCR GPR40 (Homo sapiens, UniProt O14842)
T1 construct: expressed in transfected cells; host or cells: HEK293
Test: In vitro FLIPR assay with recombinant cells which express the GPCR GPR40
Format: cell-based
Conditions: 100 μM test substance; intracellular Ca2+ change in recombinant HEK293 cells expressing GPR40; relative to control (0%: no test substance; 100%: 10 μM linoleic acid)
Procedure: In Vitro FLIPR Assay with Recombinant Cells which Express the GPCR GPR40
Function-testing assays were carried out by means of the FLIPR technique (“Fluorescence Imaging Plate Reader”, Molecular Devices Corp.). For this purpose, agonist-induced changes in the intracellular concentration of Ca^2+ in recombinant HEK293 cells which expressed the GPCR GPR40 were determined.
For the investigations, cells were seeded in 96-well microtiter plates (60 000 cells/well) and allowed to grow overnight. The medium was removed and the cells were incubated in buffer which contained the fluorescent dye fluo-4. After this loading with dye, the cells were washed, test substance was added, and changes in the intracellular Ca^2+ concentration were measured in the FLIPR instrument. Results have been presented as percentage change relative to the control (0%: no test substance added; 100%: 10 μM reference agonist linoleic acid added).

T1 sequence (O14842 whole entry): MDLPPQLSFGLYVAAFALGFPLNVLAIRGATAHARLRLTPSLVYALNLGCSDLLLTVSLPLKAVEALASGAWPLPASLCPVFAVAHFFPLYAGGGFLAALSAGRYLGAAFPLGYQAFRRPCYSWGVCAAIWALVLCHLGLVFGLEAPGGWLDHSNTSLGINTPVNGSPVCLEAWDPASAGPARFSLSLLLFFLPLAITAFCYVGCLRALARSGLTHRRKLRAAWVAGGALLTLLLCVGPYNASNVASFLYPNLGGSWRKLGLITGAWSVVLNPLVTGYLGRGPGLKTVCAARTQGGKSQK

Compound | % activation @ 100 μM [%]
O=C(O)CCCC#Cc1ncc(-c2ccccc2)c(-c2ccccc2)n1 [Example 1] | 58
O=C(O)CCCCC#Cc1ncc(-c2ccccc2)c(-c2ccccc2)n1 [Example 2, 7-(4,5-Diphenylpyrimidin-2-yl)-6-heptynoic Acid] | 104
